Results from the NIST ThermoML archive (doi:10.1016/j.tca.2014.07.001).

Settings: Liquid; for mass density: 101.33 kPa, Vibrating tube method; for vapor or sublimation pressure: Rate of evaporation

Cc1cc(OC(=O)C(C)(C)C)cc(OC(=O)C(C)(C)C)c1
Settings | mass density [kg/m3] | vapor or sublimation pressure [kPa]
323.1 K | 977.806 | –
333.1 K | 969.344 | –
343.1 K | 960.889 | –
353.1 K | 952.427 | –
363.1 K | 943.951 | –
456 K | – | 1.816
460 K | – | 2.127
464 K | – | 2.485
468 K | – | 2.894
472 K | – | 3.363
476 K | – | 3.898
480 K | – | 4.506
484 K | – | 5.197
488 K | – | 5.98
492 K | – | 6.865
496 K | – | 7.864
500 K | – | 8.989
504 K | – | 10.25
508 K | – | 11.67
512 K | – | 13.26
516 K | – | 15.03
520 K | – | 17
524 K | – | 19.2
528 K | – | 21.65
532 K | – | 24.36
536 K | – | 26.58

CCCCOc1cc(C)cc(OCCCC)c1 [1,3-dibutoxy-5-methylbenzene]
Settings | mass density [kg/m3] | vapor or sublimation pressure [kPa]
278.2 K | 955.338 | –
298.1 K | 938.896 | –
318.1 K | 922.519 | –
338.1 K | 906 | –
358.1 K | 889.4 | –
421 K | – | 1.076
425 K | – | 1.286
429 K | – | 1.533
433 K | – | 1.821
437 K | – | 2.156
441 K | – | 2.545
445 K | – | 2.995
449 K | – | 3.515
453 K | – | 4.114
457 K | – | 4.801
461 K | – | 5.588
465 K | – | 6.487
469 K | – | 7.512
473 K | – | 8.677
477 K | – | 9.998
481 K | – | 11.49
485 K | – | 13.18
489 K | – | 15.09
493 K | – | 17.23
497 K | – | 19.63
501 K | – | 22.32
505 K | – | 25.32
509 K | – | 28.68
513 K | – | 32.42
517 K | – | 34.44

Cc1cc(OCC(C)C)cc(OCC(C)C)c1 [1-methyl-3,5-bis(2-methylpropoxy)benzene]
Settings | mass density [kg/m3] | vapor or sublimation pressure [kPa]
328.2 K | 908.941 | –
338.2 K | 901.02 | –
348.2 K | 893.071 | –
358.2 K | 885.087 | –
446 K | – | 2.406
449 K | – | 2.737
452 K | – | 3.108
455 K | – | 3.524
458 K | – | 3.989
461 K | – | 4.508
464 K | – | 5.086
467 K | – | 5.729
470 K | – | 6.445
473 K | – | 7.238
476 K | – | 8.118
479 K | – | 9.091
482 K | – | 10.17
485 K | – | 11.35
488 K | – | 12.66
491 K | – | 14.1
494 K | – | 15.69
497 K | – | 17.43
500 K | – | 19.33
503 K | – | 21.42
506 K | – | 23.71
509 K | – | 26.21

Cc1cc(OCCc2ccccc2)cc(OCCc2ccccc2)c1 [1-methyl-3,5-bis(2-phenylethoxy)benzene]
Settings | mass density [kg/m3] | vapor or sublimation pressure [kPa]
283.2 K | 921.532 | –
303.2 K | 907.265 | –
323.2 K | 893.041 | –
343.2 K | 878.854 | –
363.2 K | 864.445 | –
507 K | – | 1.602
510 K | – | 1.802
513 K | – | 2.024
516 K | – | 2.271
519 K | – | 2.543
522 K | – | 2.845
525 K | – | 3.179
528 K | – | 3.548
531 K | – | 3.954
534 K | – | 4.401
537 K | – | 4.893
540 K | – | 5.434
543 K | – | 6.027
546 K | – | 6.678
549 K | – | 7.39
552 K | – | 8.17
555 K | – | 9.022
558 K | – | 9.952
561 K | – | 10.97
564 K | – | 12.07
567 K | – | 13.28
570 K | – | 14.59
573 K | – | 15.52

Cc1cc(OC(C)C)cc(OC(C)C)c1 [1-methyl-3,5-bis(propan-2-yloxy)benzene]
Settings | mass density [kg/m3] | vapor or sublimation pressure [kPa]
283.2 K | 963.279 | –
303.2 K | 945.753 | –
323.2 K | 928.213 | –
343.2 K | 910.635 | –
363.2 K | 892.968 | –
419 K | – | 2.389
422 K | – | 2.713
425 K | – | 3.074
428 K | – | 3.478
431 K | – | 3.928
434 K | – | 4.428
437 K | – | 4.984
440 K | – | 5.601
443 K | – | 6.285
446 K | – | 7.041
449 K | – | 7.876
452 K | – | 8.796
455 K | – | 9.811
458 K | – | 10.93
461 K | – | 12.15
464 K | – | 13.49
467 K | – | 14.97
470 K | – | 16.58
473 K | – | 18.34
476 K | – | 20.26
479 K | – | 22.36

CCCCC(=O)Oc1cc(C)cc(OC(=O)CCCC)c1 [3-methyl-5-(pentanoyloxy)phenyl pentanoate]
Settings | mass density [kg/m3] | vapor or sublimation pressure [kPa]
278.2 K | 1031.85 | –
298.1 K | 1015.28 | –
318.1 K | 998.841 | –
338.1 K | 982.449 | –
358.1 K | 966.043 | –
464 K | – | 0.708
468 K | – | 0.844
472 K | – | 1.004
476 K | – | 1.19
480 K | – | 1.406
484 K | – | 1.657
488 K | – | 1.948
492 K | – | 2.284
496 K | – | 2.671
500 K | – | 3.116
504 K | – | 3.626
508 K | – | 4.209
512 K | – | 4.875
516 K | – | 5.633
520 K | – | 6.495
524 K | – | 7.472
528 K | – | 8.579
532 K | – | 9.828
536 K | – | 11.24
540 K | – | 12.82
544 K | – | 14.6
548 K | – | 16.6
552 K | – | 18.83
556 K | – | 21.33
560 K | – | 24.11
